From patent publication US10933061B2 (Shepherd Therapeutics, Inc., priority 2017, dated 2021)
pIC50: −log10 of the molar value. “And” between values parts separate entries of the source, which are not always exact repeats. Equal values may be shown once.

Columns and labels:
[1] = system: NCI-H295R adrenocortical carcinoma cells; experiment: Chou-Talalay combination assay, Cell Titer Glo; format: cell-based; details: combination with pyrvinium pamoate, 72 hour incubation
Experimental: (§1) Following a 72 hour incubation, cell viability was determined using Cell Titer Glo.

[2] = system: SW13 adrenocortical carcinoma cells; experiment: Chou-Talalay combination assay, Cell Titer Glo; format: cell-based; details: combination with pyrvinium pamoate, 72 hour incubation
Experimental: as §1

[3] = system: carcinoid tumor cell line STC-1; experiment: Chou-Talalay combination assay, Cell Titer Glo; format: cell-based; details: combination with pyrvinium pamoate, 72 hour incubation
Experimental: as §1

[4] = system: CCC-5 cholangiocarcinoma cells; experiment: Chou-Talalay combination assay, Cell Titer Glo; format: cell-based; details: combination with pyrvinium pamoate, 72 hour incubation
Experimental: as §1

[5] = system: TFK-1 cholangiocarcinoma cells; experiment: Chou-Talalay combination assay, Cell Titer Glo; format: cell-based; details: combination with pyrvinium pamoate, 72 hour incubation
Experimental: as §1

[6] = system: UM-Chor1 chordoma cell line; experiment: Chou-Talalay combination assay, Cell Titer Glo; format: cell-based; details: combination with pyrvinium pamoate, 72 hour incubation
Experimental: as §1

[7] = system: TC-32 Ewing's sarcoma cells; experiment: Chou-Talalay combination assay, Cell Titer Glo; format: cell-based; details: combination with pyrvinium pamoate, 72 hour incubation
Experimental: as §1

[8] = system: TC-71 Ewing's sarcoma cells; experiment: Chou-Talalay combination assay, Cell Titer Glo; format: cell-based; details: combination with pyrvinium pamoate, 72 hour incubation
Experimental: as §1

[9] = system: Kato-III gastric carcinoma cells; experiment: Chou-Talalay combination assay, Cell Titer Glo; format: cell-based; details: Kato-III; combination with pyrvinium pamoate; 72 hour incubation
Experimental: as §1

[10] = system: GIST-1 gastrointestinal stromal tumor cells; experiment: Chou-Talalay combination assay, Cell Titer Glo; format: cell-based; details: 72 hour incubation; for CI range: combination with pyrvinium pamoate
Experimental: as §1

[11] = system: SK-LMS-1 leiomyosarcoma cells; experiment: Chou-Talalay combination assay, Cell Titer Glo; format: cell-based; details: combination with pyrvinium pamoate, 72 hour incubation
Experimental: as §1

[12] = system: SK-UT-1 leiomyosarcoma cells; experiment: Chou-Talalay combination assay, Cell Titer Glo; format: cell-based; details: 72 hour incubation
Experimental: as §1

[13] = system: SK-UT-1B leiomyosarcoma cells; experiment: Chou-Talalay combination assay, Cell Titer Glo; format: cell-based; details: combination with pyrvinium pamoate, 72 hour incubation
Experimental: as §1

[14] = system: SK-N-AS neuroblastoma cells; experiment: Chou-Talalay combination assay, Cell Titer Glo; format: cell-based; details: SK-N-AS; combination with pyrvinium pamoate; 72 hour incubation
Experimental: as §1

[15] = system: CHP-212 neuroblastoma cells; experiment: Chou-Talalay combination assay, Cell Titer Glo; format: cell-based; details: combination with pyrvinium pamoate, 72 hour incubation
Experimental: as §1

[16] = system: COV362 ovarian carcinoma cells; experiment: Chou-Talalay combination assay, Cell Titer Glo; format: cell-based; details: combination with pyrvinium pamoate, 72 hour incubation
Experimental: as §1

[17] = system: TOV-112D ovarian carcinoma cells; experiment: Chou-Talalay combination assay, Cell Titer Glo; format: cell-based; details: combination with pyrvinium pamoate, 72 hour incubation
Experimental: as §1

[18] = system: Hs766t pancreatic carcinoma cells; experiment: Chou-Talalay combination assay, Cell Titer Glo; format: cell-based; details: combination with pyrvinium pamoate, 72 hour incubation
Experimental: as §1

[19] = system: Rh30 rhabdomyosarcoma cells; experiment: Chou-Talalay combination assay, Cell Titer Glo; format: cell-based; details: combination with pyrvinium pamoate, 72 hour incubation
Experimental: as §1

[20] = system: Rh41 rhabdomyosarcoma cells; experiment: Chou-Talalay combination assay, Cell Titer Glo; format: cell-based; details: combination with pyrvinium pamoate, 72 hour incubation
Experimental: as §1

[21] = system: DMS-114 small cell lung carcinoma cells; experiment: Chou-Talalay combination assay, Cell Titer Glo; format: cell-based; details: combination with pyrvinium pamoate, 72 hour incubation
Experimental: as §1

[22] = system: SW-1271 small cell lung carcinoma cells; experiment: Chou-Talalay combination assay, Cell Titer Glo; format: cell-based; details: combination with pyrvinium pamoate, 72 hour incubation
Experimental: as §1

[23] = system: BxPC-3 pancreatic carcinoma cells; experiment: Chou-Talalay combination assay, Cell Titer Glo; details: combination with pyrvinium pamoate, 72 hour incubation
Experimental: as §1

[24] = system: Flo-1 esophageal carcinoma cells; experiment: Chou-Talalay combination assay, Cell Titer Glo; format: cell-based; details: combination with pyrvinium pamoate, 72 hour incubation
Experimental: as §1

[25] = system: OE-33 esophageal carcinoma cells; experiment: Chou-Talalay combination assay, Cell Titer Glo; format: cell-based; details: combination with pyrvinium pamoate, 72 hour incubation
Experimental: as §1

[26] = system: SNU-16 gastric carcinoma cells; experiment: Chou-Talalay combination assay, Cell Titer Glo; format: cell-based; details: combination with pyrvinium pamoate, 72 hour incubation
Experimental: as §1

LO-68 mesothelioma cells = experiment: Chou-Talalay combination assay, Cell Titer Glo; format: cell-based; details: combination with pyrvinium pamoate, 72 hour incubation
Experimental: as §1

JU-77 mesothelioma cells = experiment: Chou-Talalay combination assay, Cell Titer Glo; format: cell-based; details: combination with pyrvinium pamoate, 72 hour incubation
Experimental: as §1

[27] = system: HepG2 hepatocellular carcinoma cells; experiment: Chou-Talalay combination assay, Cell Titer Glo; details: combination with pyrvinium pamoate, 72 hour incubation
Experimental: as §1

[28] = system: HepG2-C3A hepatocellular carcinoma cells; experiment: Chou-Talalay combination assay, Cell Titer Glo; details: combination with pyrvinium pamoate, 72 hour incubation
Experimental: as §1

[29] = system: rare cancer tumor cell lines; experiment: Cell viability, panel of rare cancer tumor cell lines; format: cell-based
Experimental: In all cases, including those described below, the viable cells were determined using the CellTiter Glo® kit and a dose response curve to calculate the IC50 was generated using the PRISM software.

Question: Which CI range [1] does the source give for N.N.[Cl][Pt][Cl] [Cisplatin] here?
Answer: 0.314-0.798

Question: And the CI range [2]?
Answer: 0.309-0.886

Question: What about the CI range [3] of the same molecule?
Answer: 0.506-0.861

Question: What about the CI range [4] of the same molecule?
Answer: 0.326-0.892

Question: What about the CI range [5] of the same molecule?
Answer: 0.058-0.361

Question: And the CI range [6]?
Answer: 0.468-0.887

Question: And the CI range [7]?
Answer: 0.588-0.878

Question: What about the CI range [8] of the same molecule?
Answer: 0.329-0.832

Question: And the CI range [9]?
Answer: 0.386-0.842

Question: And the CI range [10]?
Answer: 0.177-0.732

Question: What about the CI range [11] of the same molecule?
Answer: 0.014-0.783

Question: And the “Synergy with pyrvinium pamoate” value [12]?
Answer: No

Question: What about the CI range [13] of the same molecule?
Answer: 0.407-0.742 and 0.337-0.809

Question: What about the CI range [14] of the same molecule?
Answer: 0.130-0.882

Question: What about the CI range [15] of the same molecule?
Answer: 0.694-0.756

Question: What about the CI range [16] of the same molecule?
Answer: 0.443-0.859

Question: And the CI range [17]?
Answer: 0.439-0.845

Question: What about the CI range [18] of the same molecule?
Answer: 0.458-0.875

Question: What about the CI range [19] of the same molecule?
Answer: 0.693-0.877

Question: What about the CI range [20] of the same molecule?
Answer: 0.130-0.874

Question: And the CI range [21]?
Answer: 0.572-0.883

Question: And the CI range [22]?
Answer: 0.568-0.895

Question: What about the CI range [23] of the same molecule?
Answer: 0.459-0.775 and 0.472-0.882

Question: Which CI range [10] does the source give for Cc1ccc(NC(=O)c2ccc(CN3CCN(C)CC3)cc2)cc1Nc1nccc(-c2cccnc2)n1 [Imatinib] here?
Answer: 0.203-0.726

Question: Which results are given for N.N.O=C([O-])C1(C(=O)[O-])CCC1.[Pt+2] [Carboplatin]?
Answer: CI range [1]: 0.190-0.896; CI range [2]: 0.408-0.891; CI range [24]: 0.253-0.892; CI range [25]: 0.647-0.863; CI range [7]: 0.101-0.836; CI range [8]: 0.597-0.878; CI range [9]: 0.221-0.887; CI range [26]: 0.267-0.860 and 0.261-0.842; Synergy with pyrvinium pamoate [10]: No; CI range [11]: 0.366-0.812; CI range (LO-68 mesothelioma cells): 0.410-0.801; CI range (JU-77 mesothelioma cells): 0.385-0.853; CI range [14]: 0.107-0.843; CI range [15]: 0.519-0.846; CI range [16]: 0.447-0.837; CI range [17]: 0.506-0.845; CI range [19]: 0.770-0.821; CI range [20]: 0.162-0.820

Question: For Nc1ccn([C@@H]2O[C@H](CO)[C@@H](O)C2(F)F)c(=O)n1 [Gemcitabine], which CI range [4] is on record?
Answer: 0.008-0.729

Question: What about the CI range [5] of the same molecule?
Answer: 0.290-0.851

Question: What about the CI range [11] of the same molecule?
Answer: 0.311-0.774

Question: What about the CI range ([12]; combination with pyrvinium pamoate) of the same molecule?
Answer: (0.118-0.888)

Question: What about the CI range [13] of the same molecule?
Answer: 0.516-0.687

Question: What about the CI range (LO-68 mesothelioma cells) of the same molecule?
Answer: 0.047-0.871

Question: What about the CI range (JU-77 mesothelioma cells) of the same molecule?
Answer: 0.404-0.725

Question: What about the CI range [18] of the same molecule?
Answer: 0.378-0.822

Question: And the CI range [27]?
Answer: 0.613-0.899

Question: And the CI range [28]?
Answer: 0.201-0.566

Question: What about the CI range [23] of the same molecule?
Answer: 0.417-0.851

Question: Cc1cc(/C=C/c2ccc3cc(N(C)C)ccc3[n+]2C)c(C)n1-c1ccccc1 [pyrvinium pamoate, 3-carboxy-1-[(3-carboxy-2-oxidonaphthalen-1-yl)methyl]naphthalen-2-olate;2-[(E)-2-(2,5-dimethyl-1-phenylpyrrol-3-yl)ethenyl]-N,N,1-trimethylquinolin-1-ium-6-amine] was tested. Which “growth of multiple rare cancer cell lines” value ([29]; FIG. 14) did it give?
Answer: inhibits growth

Question: What about the pIC50 ([29]; several rare cancer tumor cell lines, 72 hours, read-out: IC50s ranging) of the same molecule?
Answer: 6.00 to 8.70

Question: C#Cc1cccc(Nc2ncnc3cc(OCCOC)c(OCCOC)cc23)c1 [Erlotinib] was tested. Which CI range [6] did it give?
Answer: 0.308-0.883

Question: With CCC1=C[C@@H]2CN(C1)Cc1c([nH]c3ccccc13)[C@@](C(=O)OC)(c1cc3c(cc1OC)N(C)[C@H]1[C@@](O)(C(=O)OC)[C@H](OC(C)=O)[C@]4(CC)C=CCN5CC[C@]31[C@@H]54)C2 [Vinorelbine] as the molecule, how does the CI range (LO-68 mesothelioma cells) read?
Answer: 0.163-0.845

Question: What about the CI range (JU-77 mesothelioma cells) of the same molecule?
Answer: 0.454-0.717
